Where only a bound is given, the exact number is not on record here.

What is called IC50 is the midpoint of a concentration-inhibition curve. One may read the CC50 as the concentration that lowers cell viability or growth by half.

The test system of data set [1] is Leishmania amazonensis. Kind of data set: Antileishmanial activity against leishmania amazonensis promastigotes MHOM/BR/77/LTB0016 assessed as parasite growth inhibition incubated for 72 hrs by resazurin dye based analysis. The conditions noted are these: MHOM/BR/77/LTB0016, 72 h. Format: functional, organism-based.
The subject of data set [2] is Leishmania amazonensis. The data set can be described thus: Antileishmanial activity against leishmania amazonensis intracellular amastigotes assessed as parasite growth inhibition measured after 72 hrs by hematological dye based microscopic analysis. It is filed as functional, organism-based.
Data set [3] can be described thus: Cytotoxicity against mouse Peritoneal macrophage cell assessed as inhibition of cell viability incubated for 72 hrs by resazurin dye based analysis. Format: toxicity. The settings on record: peritoneal macrophages. In general terms: Resazurin is reduced to fluorescent resorufin, in cell work by metabolically active cells.
The nature of data set [4]: Selectivity index, ratio of CC50 for cytotoxicity against murine peritoneal macrophages assessed as inhibition of cell viability to IC50 for antileishmanial activity against leishmania amazonensis intracellular amastigotes assessed as parasite growth inhibition. The conditions noted are these: mouse, read-out: Ratio CC50/IC50. Format: toxicity, cell-based, Macrophage.

For the compound `CC1(Cc2ccccc2)CC(C(=O)NC2CCCC2)=C(c2ccc(/C(N)=N/O)cc2)O1` (stereo unspecified), in the data set on Leishmania amazonensis [1], the IC50 was determined as 61.1 µM.
As for `CC1(Cc2ccccc2)CC(C(=O)N2CCOCC2)=C(c2ccc(/C(N)=N/O)cc2)O1` (stereo unspecified), the IC50 in the data set with Leishmania amazonensis [1] was over 128 µM.
As for `CC1(Cc2ccccc2)CC(S(C)(=O)=O)=C(c2ccc(/C(N)=N/O)cc2)O1` (stereo unspecified), the concentration for half-maximal inhibition (IC50) in the data set on Leishmania amazonensis [1] is 91.4 µM.
Turning to `CCOC(=O)C1=C(c2ccc(/C(N)=N/O)cc2)OC(C)(Cc2ccccc2)C1` (stereo unspecified), the half-inhibitory concentration (IC50) in the data set with Leishmania amazonensis [2] is 1.3 µM; in the data set on Leishmania amazonensis [1], 6.3 µM. For the same compound, in data set [3], the half-maximal cytotoxic concentration (CC50) at 72 h was 112 µM. For the same compound, the selectivity ratio in data set [4] worked out at 87.8.
`CC1(Cc2ccccc2)CC(C(=O)NCCN2CCCC2)=C(c2ccc(/C(N)=N/O)cc2)O1` (stereo unspecified): in the data set with Leishmania amazonensis [1], the half-inhibitory concentration (IC50) came out at 102 µM.
Regarding `CCCCNC(=O)C1=C(c2ccc(/C(N)=N/O)cc2)OC(C)(Cc2ccccc2)C1` (stereo unspecified), in the data set on Leishmania amazonensis [1], the concentration for half-maximal inhibition (IC50) turned out to be 92.6 µM.
Take `COC(=O)C1=C(c2ccc(/C(N)=N/O)cc2)OC(C)(Cc2ccccc2)C1` (stereo unspecified): the figures for the IC50 with Leishmania amazonensis [2] and in the data set with Leishmania amazonensis [1] were 2.3 µM and 4.7 µM, respectively. Also, the CC50 at 72 h in data set [3] was determined as 70.6 µM. Moreover, the selectivity ratio in data set [4] was found to be 30.7.
As for `CCCCS(=O)(=O)C1=C(c2ccc(/C(N)=N/O)cc2)OC(C)(Cc2ccccc2)C1` (stereo unspecified), the concentration for half-maximal inhibition (IC50) in the data set with Leishmania amazonensis [1] came out at 63.5 µM.
As to `CCN(CC)C(=O)C1=C(c2ccc(/C(N)=N/O)cc2)OC(C)(Cc2ccccc2)C1` (stereo unspecified), the IC50 in the data set on Leishmania amazonensis [1] was 60.4 µM.
Regarding `CC1(Cc2ccccc2)CC(C(=O)NC2CCCCC2)=C(c2ccc(/C(N)=N/O)cc2)O1` (stereo unspecified), the IC50 in the data set with Leishmania amazonensis [1] is 43.6 µM.
